The nature of assay [1]: Antagonist activity at CXCR2 in human neutrophils assessed as reduction in GRO-alpha mediated chemotaxis.
Assay [2] in a line: Inhibition of CXCR2-mediated chemotaxis in mouse BAF3 cells.

Experimental findings from BindingDB's records for doi:10.1016/j.ejmech.2019.111853 (Hangzhou Institute of Innovative Medicine, 2020) are described below.

The term IC50 denotes the concentration that inhibits the measured activity by half. Take `COC(=O)CSc1ccc(C(=O)Nc2ccc(F)cc2)cn1` [[5-(4-Fluoro-phenylcarbamoyl)-pyridin-2-ylsulfanyl]-acetic acid methyl ester]: the 50% inhibitory concentration (IC50) in assay [1] was 0.042 µM. Consider `CC[C@@H](Nc1c(Nc2cccc(C(=O)N3CCN4CCC[C@H]4C3)c2O)c(=O)c1=O)c1ccc(C)o1`, for which the IC50 in assay [2] was found to be 0.0001 µM.
